Read-outs that look alike come from different tables or passages of the source.
Key:
[1] = aqueous composition containing MBK, pH 7.0 and pH 9.6, 5 hours
Protocol: Cells in the digestive track, such as CACO-2 cells are typically used to model absorption in the small intestine. CACO-2 cells, developed by the Sloan-Kettering Institute from human epithelial colorectal adenocarcinoma cells, are widely used to predict drug absorption. […] permeability assay (PAMPA) uses an artificial cell membrane to model drug permeability. In either test, the drug is dissolved in an aqueous solution mimicking the target gastric fluid. The fluid is contacted with the membrane, and the passage of the drug through the membrane over a period of time is used to assess permeability.
PAMPA measures how quickly the drug can exit a water-solvated environment and pass through a cell membrane. Since most drugs are hydrophobic, it is expected that there will be significant absorption by the cells lining the digestive tract.

[2] = rat; for Halflife / Tmax: mean
in vivo = settings: rat
[3] = dogs, rectal, aqueous solution; cited from earlier work
[4] = Group B, intravenous, 1.37 mg/kg

| SMILES | passage of drug through the artificial cell membrane (PAMPA) [1] | Halflife [2, 4] [h] | Tmax [2, 4] [min] | Tmax ([2]; Group C, rectal suppository, 213.5 mg/kg) [min] | Halflife ([2]; Group C, rectal suppository, 213.5 mg/kg, terminal elimination phase not observed, calculation interpolated) | drug absorbed within eight hours ([2]; suppository with MBK as the excipient) | bioavailability at 8 hours (in vivo) [%] | AUC (in vivo; 213.5 mg/kg) [ng·h/mL] | AUC(0-inf) (in vivo; 213.5 mg/kg) [ng·h/mL] | Cmax (in vivo; 213.5 mg/kg) [ng/mL] | AUC (in vivo; iv, 1.37 mg/kg) [ng·h/mL] | AUC(0-inf) (in vivo; iv, 1.37 mg/kg) [ng·h/mL] | Cmax (in vivo; iv, 1.37 mg/kg) [ng/mL] | absorption [3] [%] |
| --- | --- | --- | --- | --- | --- | --- | --- | --- | --- | --- | --- | --- | --- | --- |
| O=C([O-])CN(CCN(CC(=O)[O-])CC(=O)[O-])CC(=O)[O-].[Ca+2].[Na+].[Na+] [CaNa2EDTA, calcium disodium ethylenediaminetetraacetate] | completely negative | 1.50 | 4.98 | 25 | 8.20^1 Hour | over 36.3% | 36.3 | 106000 | 307000 | 30600 | 1860 | 1910 | 2070 | – |
| O=C(O)CN(CCN(CC(=O)O)CC(=O)O)CC(=O)O [EDTA] | – | – | – | – | – | – | – | – | – | – | – | – | – | ~13 |

Reference: patent US20140275259A1, “Direct Lipid to Membrane Drug Delivery” (APPLIED BIORESEARCH, INC., priority 2013, published 2014)
